The assay has as its target T1, P2X4 receptor (Homo sapiens, UniProt Q99571).
T1 construct: expressed in transfected cells; host or cells: 1321N1 astrocytoma cells, retroviral vector pQCXIN, G418 selection, monoclones
T1 sequence (Q99571 1-388): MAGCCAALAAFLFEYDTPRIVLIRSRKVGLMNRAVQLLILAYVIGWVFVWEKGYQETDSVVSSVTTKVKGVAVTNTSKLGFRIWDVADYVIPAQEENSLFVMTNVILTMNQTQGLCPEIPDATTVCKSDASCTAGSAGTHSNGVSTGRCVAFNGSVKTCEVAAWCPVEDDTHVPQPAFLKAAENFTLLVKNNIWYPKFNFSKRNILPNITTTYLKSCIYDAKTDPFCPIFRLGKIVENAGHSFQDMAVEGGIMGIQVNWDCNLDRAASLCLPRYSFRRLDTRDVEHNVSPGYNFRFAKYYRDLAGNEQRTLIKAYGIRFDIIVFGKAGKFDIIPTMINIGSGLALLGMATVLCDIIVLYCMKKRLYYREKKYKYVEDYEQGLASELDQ
Nature of the assay: Measurement of Ca2+ influx in transfected 1321N1 astrocytoma cells (P2X4 inhibitory potency). It is filed as cell-based. The settings on record: agonist-mediated Ca2+ influx, FLUO-4, 1321N1 astrocytoma cells; antagonists added 30 min before agonist. From the text: The rat, mouse, and human P2X4 DNA, respectively, were cloned into the retroviral vector pQCXIN. 1321N1 Astrocytoma cells were transfected with the DNA using a retroviral system as described previously. In brief, GP+envAM12 packaging cells were first transiently co-transfected with a retroviral vector to generate the retrovirus and with a vesicular stomatitis virus G protein (VSV-G) to pseudotype the virus and to increase their infection efficiency. The viruses containing the rat, mouse or human P2X4 receptor sequence were then used to create a stable astrocytoma cell line. P2X4 receptor-expressing cells were selected with G418 ([…]).
The selection of monoclones for rat and human P2X4 receptors was performed using the limited dilution method by plating the cells at very low cell densities (1 cell clone per well in 96-well plates). Cells were counted, and then several dilutions were made to obtain a concentration of […]. We subsequently added 100 µL of the diluted cell suspension into each well expecting to obtain on average 1 cell per well. After a few days the wells that contained single clones were labeled and transferred into 24 well plates. More than 20 clones were selected for each cell line and characterized in calcium influx assay.
Measurement of Ca^2+ influx in transfected 1321N1 astrocytoma cells
P2X receptor function was determined on the basis of agonist-mediated increases in cytosolic Ca^2+ concentration. The fluorescent Ca^2+chelating dye FLUO-4 was used as an indicator of the relative levels of intracellular Ca^2+ in a 96-well format using a fluorescence imaging plate reader (Novostar, BMG, Germany). Cells were grown to confluence in 96-well black-walled tissue culture plates and loaded with FLUO-4 AM ([…]) in Hank's balanced salt solution (HBSS, containing 10 mM HEPES, pH 7.3, and 1% Pluronic® F127) for 1 h at 23° C. After incubation, the loaded cells were washed with the same buffer to remove extracellular FLUO-4 AM. Compound solutions were prepared in HBSS (containing 20 mM HEPES, pH 7.3) or DMSO depending on their solubility. […] Fluorescence intensity was measured at 520 nm for 30 s at 0.4 s intervals. Buffer or test compounds were injected sequentially into separate wells using the automatic pipetting device. At least three independent experiments were performed in triplicate or duplicate. Antagonists were added 30 min before the addition of agonists. The assays were performed in a final volume of 200 μL. Compounds were tested at 7-8 different concentrations spanning three orders of magnitude of concentrations. Statistical significances were calculated using the unpaired two-tailed t-test.

The values below come from patent US20260209215A1, “GLYCINE DERIVATIVES WITH P2X4 RECEPTOR-BLOCKING ACTIVITY AS DIAGNOSTICS AND FOR THE TREATMENT OF PAIN, INFLAMMATION, CANCER, AND OTHER P2X4 RECEPTOR-RELATED DISEASES” (RHEINISCHE-FRIEDRICH-WILHELMS-UNIVERSITÄT BONN, priority 2022, published 2026).

As usually defined, the IC50 is the concentration that gives 50% inhibition. Low readings indicate inhibition by little substance, high ones a need for much substance.

Regarding “2-((2-methyl-5-(3-methyl- 1,2,4-oxadiazol-5-yl) phenyl)amino)-1-(1H- pyrrolo[2,3-b]pyridin-3- yl)ethan-1-one [Example 107]”, the IC50 was 70 to 99 nM.
`Cc1nsc(-c2ccc(C)c(NCC(=O)N3CCc4c3cccc4C(C)(O)CO)c2)n1` (racemic) [Example 62, 1-(4-(1,2-dihydroxypropan-2-yl)indolin-1-yl)-2-((2-methyl-5-(3-methyl-1,2,4-thiadiazol-5-yl)phenyl)amino)ethan-1-one] returned an IC50 of 0.1 to 19 nM.
As for `Cc1nsc(-c2cc(NCC(=O)N3CCc4c3cc(Br)cc4[C@@](C)(O)CO)c(C)cc2Br)n1` (stereo in doubt) [Example 123, 2-((4-bromo-2-methyl-5-(3-methyl-1,2,4-thiadiazol-5-yl)phenyl)amino)-1-(6-bromo-4-(1,2-dihydroxypropan-2-yl)indolin-1-yl)ethan-1-one], the IC50 was above 100 nM.
To `COc1cccc2c1CCN2C(=O)CNc1cc(-c2nc(C)ns2)ccc1C` [Example 1, 1-(4-methoxyindolin-1-yl)-2-((2-methyl-5-(3-methyl-1,2,4-thiadiazol-5-yl)phenyl)-amino)ethan-1-one] belongs 0.1 to 19 nM; to `COc1cccc2c1CCN2C(=O)CNc1cc(-c2nc(C)no2)ccc1C` [Example 2, 1-(4-methoxyindolin-1-yl)-2-((2-methyl-5-(3-methyl-1,2,4-oxadiazol-5-yl)phenyl)-amino)ethan-1-one], 0.1 to 19 nM.
The value for `CCc1noc(-c2ccc(F)c(NCC(=O)N3CCc4cc(OC)c(F)cc43)c2)n1` [Example 3, 2-((5-(3-ethyl-1,2,4-oxadiazol-5-yl)-2-fluorophenyl)amino)-1-(6-fluoro-5-methoxyindolin-1-yl)ethan-1-one] was 20 to 39 nM; that for `COc1ccc(-c2nc(C)ns2)cc1NCC(=O)N1CCc2c(OC)cccc21` [Example 4, 2-((2-methoxy-5-(3-methyl-1,2,4-thiadiazol-5-yl)phenyl)-amino)-1-(4-methoxyindolin-1-yl)ethan-1-one] was 20 to 39 nM; that for `CCn1nnc(-c2ccc(OC)c(NCC(=O)N3CCc4c(OC)cccc43)c2)n1` [Example 5, 2-((5-(2-ethyl-2H-tetrazol-5-yl)-2-methoxyphenyl)amino)-1-(4-methoxyindolin-1-yl)ethan-1-one] was 20 to 39 nM.
`COc1ccc(-c2nc(C)ns2)cc1NCC(=O)n1ccc2cc(F)ccc21` [Example 6, 1-(5-fluoro-1H-indol-1-yl)-2-((2-methoxy-5-(3-methyl-1,2,4-thiadiazol-5-yl)phenyl)amino-) ethan-1-one] gave an IC50 of 70 to 99 nM.
The value for `CCc1noc(-c2ccc(OC)c(NCC(=O)N3CCc4ccc(C(F)(F)F)cc43)c2)n1` [Example 7, 2-(5-(3-ethyl-1,2,4-oxadiazol-5-yl)-2-methoxyphenylamino)-1-(6-(trifluoromethyl)indolin-1-yl)ethanone] was above 100 nM; that for `COc1cccc2c1CCN2C(=O)CNc1cc(-c2nc(C)ns2)cc(F)c1OC` [Example 8, 2-((3-fluoro-2-methoxy-5-(3-methyl-1,2,4-thiadiazol-5-yl)phenyl)amino)-1-(4-methoxyindolin-1-yl) ethan-1-one] was 70 to 99 nM.
`CCc1noc(-c2ccc(OC)c(NCC(=O)N3CCc4ccc(Br)cc43)c2)n1` [Example 9, 1-(6-bromoindolin-1-yl)-2-((5-(3-ethyl-1,2,4-oxadiazol-5-yl)-2-methoxyphenyl)amino) ethan-1-one] showed an IC50 of 40 to 69 nM.
To `Cc1nsc(-c2ccc(C)c(NCC(=O)N3CCc4nc(Cl)ccc43)c2)n1` [Example 10, 1-(5-chloro-2,3-dihydro-1H-pyrrolo[3,2-b]pyridin-1-yl)-2-((2-methyl-5-(3-methyl-1,2,4-thiadiazol-5-yl)phenyl)amino)ethan-1-one] belongs 70 to 99 nM.
The molecule `CCc1noc(-c2ccc(OC)c(NCC(=O)N3CCc4nc(OC)ccc43)c2)n1` [Example 11, 2-((5-(3-ethyl-1,2,4-oxadiazol-5-yl)-2-methoxyphenyl)amino)-1-(5-methoxy-2,3-dihydro-1H-pyrrolo[3,2-b]pyridin-1-yl)ethan-1-one] gave an IC50 of 20 to 39 nM.
